Data: PubChem BioAssay AID2060609 (Molecular Pharmacology Branch, DTP, NCI, 2025)

Test system: 855422-203-R-J1-PDC complex spheroids, viability
Test: Anticancer human tumor 855422-203-R-J1-PDC patient-derived bladder carcinoma cell line growth inhibition [CLK]
Details: for IC50: curve of first compound; for viability, T/C: stronger effect = lower value
How it was run: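 Multi-cell-type spheroids combined patient-derived tumor cells with HUVEC endothelial cells and human mesenchymal stem cells. Paired agents were dosed in half-log steps down from about clinical Cmax, or from 10 microM where Cmax was unknown.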

[1] = second compound 0.0316 µM, first compound 0.0316 µM
[2] = second compound 0.0316 µM, first compound 0.1 µM
[3] = second compound 0.0316 µM, first compound 0.316 µM
[4] = second compound 0.0316 µM, first compound 1 µM
[5] = second compound 0.0316 µM, first compound 3.16 µM
[6] = second compound 0.0316 µM, first compound 10 µM
[7] = second compound 0.1 µM, first compound 0.0316 µM
[8] = second compound 0.1 µM, first compound 0.1 µM
[9] = second compound 0.1 µM, first compound 0.316 µM
[10] = second compound 0.1 µM, first compound 1 µM
[11] = second compound 0.1 µM, first compound 3.16 µM
[12] = second compound 0.1 µM, first compound 10 µM
[13] = second compound 0.316 µM, first compound 0.0316 µM
[14] = second compound 0.316 µM, first compound 0.1 µM
[15] = second compound 0.316 µM, first compound 0.316 µM
[16] = second compound 0.316 µM, first compound 1 µM
[17] = second compound 0.316 µM, first compound 3.16 µM
[18] = second compound 0.316 µM, first compound 10 µM
[19] = second compound 1 µM, first compound 0.0316 µM
[20] = second compound 1 µM, first compound 0.1 µM
[21] = second compound 1 µM, first compound 0.316 µM
[22] = second compound 1 µM, first compound 1 µM
[23] = second compound 1 µM, first compound 3.16 µM
[24] = second compound 1 µM, first compound 10 µM
[25] = second compound 3.16 µM, first compound 0.0316 µM
[26] = second compound 3.16 µM, first compound 0.1 µM
[27] = second compound 3.16 µM, first compound 0.316 µM
[28] = second compound 3.16 µM, first compound 1 µM
[29] = second compound 3.16 µM, first compound 3.16 µM
[30] = second compound 3.16 µM, first compound 10 µM
[31] = second compound 10 µM, first compound 0.0316 µM
[32] = second compound 10 µM, first compound 0.1 µM
[33] = second compound 10 µM, first compound 0.316 µM
[34] = second compound 10 µM, first compound 1 µM
[35] = second compound 10 µM, first compound 3.16 µM
[36] = second compound 10 µM, first compound 10 µM
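Also: spheroids exposed to drugs for seven days before readout.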
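For viability, T/C in this document: 100% = DMSO vehicle control wells.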

Question: What does the source list for `CC(=O)O[C@H]1C(=O)[C@@]2(C)[C@H]([C@H](OC(=O)c3ccccc3)[C@]3(O)C[C@H](OC(=O)[C@H](O)[C@@H](NC(=O)c4ccccc4)c4ccccc4)C(C)=C1C3(C)C)[C@]1(OC(C)=O)CO[C@@H]1C[C@@H]2O` + CNC(=O)c1ccc(Nc2nc(OC3CCCC3)c3c(-c4ccc5nc(C)oc5c4)c[nH]c3n2)c(OC)c1?
Answer: IC50 (second compound 0.0316 µM): < 31.6 nM; IC50 (second compound 0.1 µM): < 31.6 nM; IC50 (second compound 0.316 µM): < 31.6 nM; IC50 (second compound 1 µM): < 31.6 nM; IC50 (second compound 3.16 µM): < 31.6 nM; IC50 (second compound 10 µM): < 31.6 nM; viability, T/C [1]: 8.98%; viability, T/C [2]: 6.61%; viability, T/C [3]: 7.27%; viability, T/C [4]: 7.58%; viability, T/C [5]: 8.71%; viability, T/C [6]: 11.3%; viability, T/C [7]: 16.5%; viability, T/C [8]: 11.2%; viability, T/C [9]: 13.8%; viability, T/C [10]: 11.9%; viability, T/C [11]: 15%; viability, T/C [12]: 25.5%; viability, T/C [13]: 30.5%; viability, T/C [14]: 28.8%; viability, T/C [15]: 29.2%; viability, T/C [16]: 31.9%; viability, T/C [17]: 34.4%; viability, T/C [18]: 31.5%; viability, T/C [19]: 32%; viability, T/C [20]: 25.3%; viability, T/C [21]: 28.1%; viability, T/C [22]: 35.5%; viability, T/C [23]: 36.5%; viability, T/C [24]: 27%; viability, T/C [25]: 28.6%; viability, T/C [26]: 28.3%; viability, T/C [27]: 21.7%; viability, T/C [28]: 31.7%; viability, T/C [29]: 31.8%; viability, T/C [30]: 24.2%; viability, T/C [31]: 23.4%; viability, T/C [32]: 33.6%; viability, T/C [33]: 25.5%; viability, T/C [34]: 24.9%; viability, T/C [35]: 31.4%; viability, T/C [36]: 26.3%

Question: How did the IC50 (second compound 0.0316 µM) turn out when `CCc1c2c(nc3ccc(O)cc13)-c1cc3c(c(=O)n1C2)COC(=O)[C@]3(O)CC` + CNC(=O)c1ccc(Nc2nc(OC3CCCC3)c3c(-c4ccc5nc(C)oc5c4)c[nH]c3n2)c(OC)c1 was run?
Answer: The IC50 was 3.92 nM.

Question: And the IC50 (second compound 0.1 µM)?
Answer: The IC50 was under 3.16 nM.

Question: What about the IC50 (second compound 0.316 µM) of the same molecule?
Answer: The IC50 was under 3.16 nM.

Question: And the IC50 (second compound 1 µM)?
Answer: The IC50 was under 3.16 nM.

Question: And the IC50 (second compound 3.16 µM)?
Answer: The IC50 was under 3.16 nM.

Question: What about the IC50 (second compound 10 µM) of the same molecule?
Answer: The IC50 was under 3.16 nM.

Question: What about the viability, T/C (second compound 0.0316 µM, first compound 0.00316 µM) of the same molecule?
Answer: Its viability, T/C is 58.1%.

Question: What about the viability, T/C (second compound 0.0316 µM, first compound 0.01 µM) of the same molecule?
Answer: Its viability, T/C is 14.6%.

Question: And the viability, T/C [1]?
Answer: Its viability, T/C is 10.3%.

Question: And the viability, T/C [2]?
Answer: The viability, T/C was 4.46%.

Question: And the viability, T/C [3]?
Answer: Its viability, T/C is 2.37%.

Question: And the viability, T/C [4]?
Answer: Its viability, T/C is 2.42%.

Question: And the viability, T/C (second compound 0.1 µM, first compound 0.00316 µM)?
Answer: Its viability, T/C is 31.4%.

Question: What about the viability, T/C (second compound 0.1 µM, first compound 0.01 µM) of the same molecule?
Answer: Its viability, T/C is 13.2%.

Question: And the viability, T/C [7]?
Answer: The viability, T/C was 8.17%.

Question: What about the viability, T/C [8] of the same molecule?
Answer: Its viability, T/C is 3.32%.

Question: And the viability, T/C [9]?
Answer: Its viability, T/C is 2.65%.

Question: And the viability, T/C [10]?
Answer: The viability, T/C was 1.46%.

Question: And the viability, T/C (second compound 0.316 µM, first compound 0.00316 µM)?
Answer: The viability, T/C was 18.2%.

Question: And the viability, T/C (second compound 0.316 µM, first compound 0.01 µM)?
Answer: Its viability, T/C is 11.9%.

Question: And the viability, T/C [13]?
Answer: Its viability, T/C is 6.3%.

Question: What about the viability, T/C [14] of the same molecule?
Answer: The viability, T/C was 3.66%.

Question: What about the viability, T/C [15] of the same molecule?
Answer: Its viability, T/C is 2.03%.

Question: What about the viability, T/C [16] of the same molecule?
Answer: The viability, T/C was 3.09%.

Question: And the viability, T/C (second compound 1 µM, first compound 0.00316 µM)?
Answer: The viability, T/C was 17.7%.

Question: What about the viability, T/C (second compound 1 µM, first compound 0.01 µM) of the same molecule?
Answer: The viability, T/C was 10.2%.

Question: And the viability, T/C [19]?
Answer: Its viability, T/C is 7.3%.

Question: And the viability, T/C [20]?
Answer: Its viability, T/C is 4.22%.

Question: And the viability, T/C [21]?
Answer: The viability, T/C was 2.1%.

Question: What about the viability, T/C [22] of the same molecule?
Answer: Its viability, T/C is 1.8%.

Question: And the viability, T/C (second compound 3.16 µM, first compound 0.00316 µM)?
Answer: The viability, T/C was 17.8%.

Question: What about the viability, T/C (second compound 3.16 µM, first compound 0.01 µM) of the same molecule?
Answer: The viability, T/C was 12.4%.

Question: And the viability, T/C [25]?
Answer: Its viability, T/C is 7.84%.

Question: And the viability, T/C [26]?
Answer: Its viability, T/C is 3.73%.

Question: And the viability, T/C [27]?
Answer: The viability, T/C was 2.41%.

Question: And the viability, T/C [28]?
Answer: The viability, T/C was 1.27%.

Question: And the viability, T/C (second compound 10 µM, first compound 0.00316 µM)?
Answer: Its viability, T/C is 13.8%.

Question: And the viability, T/C (second compound 10 µM, first compound 0.01 µM)?
Answer: The viability, T/C was 11.1%.

Question: What about the viability, T/C [31] of the same molecule?
Answer: The viability, T/C was 7.08%.

Question: What about the viability, T/C [32] of the same molecule?
Answer: Its viability, T/C is 5.03%.

Question: And the viability, T/C [33]?
Answer: The viability, T/C was 3.52%.

Question: And the viability, T/C [34]?
Answer: Its viability, T/C is 1.51%.

Question: Which results are given for `COc1cccc2c1C(=O)c1c(O)c3c(c(O)c1C2=O)CC(O)(C(=O)CO)CC3OC1CC(N)C(O)C(C)O1` (stereo unspecified) + CNC(=O)c1ccc(Nc2nc(OC3CCCC3)c3c(-c4ccc5nc(C)oc5c4)c[nH]c3n2)c(OC)c1?
Answer: IC50 (second compound 0.0316 µM): < 31.6 nM; IC50 (second compound 0.1 µM): < 31.6 nM; IC50 (second compound 0.316 µM): < 31.6 nM; IC50 (second compound 1 µM): < 31.6 nM; IC50 (second compound 3.16 µM): < 31.6 nM; IC50 (second compound 10 µM): < 31.6 nM; viability, T/C [1]: 10.3%; viability, T/C [2]: 2.45%; viability, T/C [3]: 0.72%; viability, T/C [4]: 0.22%; viability, T/C [5]: 0.45%; viability, T/C [6]: 0.6%; viability, T/C [7]: 11%; viability, T/C [8]: 1.62%; viability, T/C [9]: 1.02%; viability, T/C [10]: 0.3%; viability, T/C [11]: 0.4%; viability, T/C [12]: 0.51%; viability, T/C [13]: 9.64%; viability, T/C [14]: 1.3%; viability, T/C [15]: 0.46%; viability, T/C [16]: 0.22%; viability, T/C [17]: 0.45%; viability, T/C [18]: 0.55%; viability, T/C [19]: 7.4%; viability, T/C [20]: 1.13%; viability, T/C [21]: 0.24%; viability, T/C [22]: 0.56%; viability, T/C [23]: 0.58%; viability, T/C [24]: 0.82%; viability, T/C [25]: 9.03%; viability, T/C [26]: 0.94%; viability, T/C [27]: 0.2%; viability, T/C [28]: 0.62%; viability, T/C [29]: 0.98%; viability, T/C [30]: 0.75%; viability, T/C [31]: 6.1%; viability, T/C [32]: 0.68%; viability, T/C [33]: 0.35%; viability, T/C [34]: 0.72%; viability, T/C [35]: 0.63%; viability, T/C [36]: 1.3%
